Biological target: T1, human M2 receptor (Homo sapiens, UniProt P08172)
T1 sequence (P08172 1-466): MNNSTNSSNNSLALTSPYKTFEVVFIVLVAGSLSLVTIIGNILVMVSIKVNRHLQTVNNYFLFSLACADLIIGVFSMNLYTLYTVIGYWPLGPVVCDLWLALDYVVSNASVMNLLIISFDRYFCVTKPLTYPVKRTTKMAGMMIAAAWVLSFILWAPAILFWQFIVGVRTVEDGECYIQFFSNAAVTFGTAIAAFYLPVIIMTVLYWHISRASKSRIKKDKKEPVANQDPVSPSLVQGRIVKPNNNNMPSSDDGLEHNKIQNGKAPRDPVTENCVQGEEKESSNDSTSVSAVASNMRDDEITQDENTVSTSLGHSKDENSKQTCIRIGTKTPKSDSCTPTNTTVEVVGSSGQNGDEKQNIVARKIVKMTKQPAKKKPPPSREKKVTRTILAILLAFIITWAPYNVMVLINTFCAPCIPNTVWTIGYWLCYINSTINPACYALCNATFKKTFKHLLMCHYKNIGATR
Experiment: Functional M2-GIRK1/4 activation test: allosteric potency (EC50) and efficiency
Conditions: for EC50: Receptor activity EC50, CHO-DUKX-M2-GIRK cells, acetylcholine at EC20, in some cases mean of two or more determinations; for Emax: read-out: Efficiency, boosting of the acetylcholine effect at EC20 acetylcholine concentration; for Emax / Efficiency: CHO-DUKX-M2-GIRK cells; for Efficiency: boosting of the acetylcholine effect at EC20 acetylcholine concentration

Row | Compound | EC50 [µM] | Emax [%] | Efficiency [%]
1 | CC1(NC(=O)c2cn(-c3ncc(F)cc3F)c3nc(N4CCNC4=O)ccc3c2=O)CC(F)(F)C1 [Example 171, N-(3,3-Difluoro-1-methylcyclobutyl)-1-(3,5-difluoropyridin-2-yl)-4-oxo-7-(2-oxoimidazolidin-1-yl)-1,4-dihydro-1,8-naphthyridine-3-carboxamide] | 3.1 | 90.5 | 
2 | CC[C@H](NC(=O)c1cn(-c2ncc(F)cc2F)c2nc(N3CC(O)(C(F)(F)F)C3)ccc2c1=O)C(F)(F)F [Example 131, 1-(3,5-Difluoropyridin-2-yl)-7-[3-hydroxy-3-(trifluoromethyl)azetidin-1-yl]-4-oxo-N-[(2S)-1,1,1-trifluorobutan-2-yl]-1,4-dihydro-1,8-naphthyridine-3-carboxamide] | 0.108 | 95.5 | 
3 | CC1(O)CCN(c2ccc3c(=O)c(C(=O)Nc4c(Cl)cccc4Cl)cn(-c4ncc(F)cc4F)c3n2)C1 (racemic) [Example 69, N-(2,6-Dichlorophenyl)-1-(3,5-difluoropyridin-2-yl)-7-[3-hydroxy-3-methylpyrrolidin-1-yl]-4-oxo-1,4-dihydro-1,8-naphthyridine-3-carboxamide] | 0.365 | 92 | 
4 | CC(CF)(CF)NC(=O)c1cn(-c2ncc(F)cc2F)c2nc(N3C[C@@H](O)[C@H](O)C3)ccc2c1=O [Example 103, N-(1,3-Difluoro-2-methylpropan-2-yl)-1-(3,5-difluoropyridin-2-yl)-7-[(3R,4R)-3,4-dihydroxypyrrolidin-1-yl]-4-oxo-1,4-dihydro-1,8-naphthyridine-3-carboxamide] | 0.305 | 100 | 
5 | CC[C@@H](NC(=O)c1cn(-c2ncc(F)cc2F)c2nc(N3CCOCC3)ccc2c1=O)C(F)(F)F [Example 71, 1-(3,5-Difluoropyridin-2-yl)-7-(morpholin-4-yl)-4-oxo-N-[(2R)-1,1,1-trifluorobutan-2-yl]-1,4-dihydro-1,8-naphthyridine-3-carbonxamide] | 0.36 | 97.5 | 
6 | O=C(NC(c1ccc(F)cc1)C(F)(F)F)c1cn(-c2ncc(F)cc2F)c2nc(N3C[C@@H](O)CC3=O)ccc2c1=O (single isomer, unassigned) [Example 13] | 0.13 |  | 99.50
7 | CC1C(O)C2(CC2)C(=O)N1c1ccc2c(=O)c(C(=O)N[C@@H](C)C(F)(F)F)cn(-c3ncc(F)cc3F)c2n1 (stereo partly drawn) [Example 116, 1-(3,5-Difluoropyridin-2-yl)-7-[7-hydroxy-6-methyl-4-oxo-5-azaspiro[2.4]hept-5-yl]-4-oxo-N-[(2S)-1,1,1-trifluoropropan-2-yl]-1,4-dihydro-1,8-naphthyridine-3-carboxamide] | 0.335 | 96 | 
8 | O=C(Nc1c(Cl)cccc1Cl)c1cn(-c2ncc(F)cc2F)c2nc(N3C[C@@H](O)[C@@H](O)C3)ccc2c1=O [Example 66, N-(2,6-Dichlorophenyl)-1-(3,5-difluoropyridin-2-yl)-7-[(3R,4S)-3,4-dihydroxypyrrolidin-1-yl]-4-oxo-1,4-dihydro-1,8-naphthyridine-3-carboxamide] | 0.31 | 92.5 | 
9 | O=C(NC(C1CC1)C(F)(F)F)c1cn(-c2ncc(F)cc2F)c2nc(N3CC[C@@H](O)C3=O)ccc2c1=O (stereo partly drawn) [Example 26, N-[1-Cyclopropyl-2,2,2-trifluoroethyl]-1-(3,5-difluoropyridin-2-yl)-7-[(3R)-3-hydroxy-2-oxopyrrolidin-1-yl]-4-oxo-1,4-dihydro-1,8-naphthyridine-3-carboxamide] | 0.2 | 94.5 | 
10 | CC[C@H](NC(=O)c1cn(-c2ncc(F)cc2F)c2nc(N3C(=O)C4(CC4)C(O)C3C)ccc2c1=O)C(F)(F)F (stereo partly drawn) [Example 113, 1-(3,5-Difluoropyridin-2-yl)-7-[7-hydroxy-6-methyl-4-oxo-5-azaspiro[2.4]hept-5-yl]-4-oxo-N-[(2S)-1,1,1-trifluorobutan-2-yl]-1,4-dihydro-1,8-naphthyridine-3-carboxamide] | 0.145 | 97 | 
11 | O=C(N[C@H](C1CC1)C(F)(F)F)c1cn(-c2ncc(F)cc2F)c2nc(N3CC4CC4(O)C3)ccc2c1=O (mixture of isomers) [Example 37, N-[(1R)-1-Cyclopropyl-2,2,2-trifluoroethyl]-1-(3,5-difluoropyridin-2-yl)-7-[1-hydroxy-3-azabicyclo[3.1.0]hex-3-yl]-4-oxo-1,4-dihydro-1,8-naphthyridine-3-carboxamide] | 0.021 | 99 | 
12 | O=C(NC(C1CC1)C(F)(F)F)c1cn(-c2ncc(F)cc2F)c2nc(N3C[C@@H](O)[C@H](O)C3)ccc2c1=O (stereo partly drawn) [Example 40, N-[1-Cyclopropyl-2,2,2-trifluoroethyl]-1-(3,5-difluoropyridin-2-yl)-7-[(3R,4R)-3,4-dihydroxypyrrolidin-1-y1]-4-oxo-1,4-dihydro-1,8-naphthyridine-3-carboxamide] | 0.16 | 100 | 
13 | O=C(NC(C(F)(F)F)C(F)(F)F)c1cn(-c2ncc(F)cc2F)c2nc(N3CC4CC4(O)C3)ccc2c1=O (single isomer, unassigned) [Example 59, 1-(3,5-Difluoropyridin-2-yl)-N-(1,1,1,3,3,3-hexafluoropropan-2-yl)-7-[1-hydroxy-3-azabicyclo[3.1.0]hex-3-yl]-4-oxo-1,4-dihydro-1,8-naphthyridine-3-carboxamide] | 0.023 |  | 99.00
14 | O=C(NC(c1ccc(Cl)cc1)C(F)(F)F)c1cn(-c2ncc(F)cc2F)c2nc(N3C[C@@H](O)CC3=O)ccc2c1=O (stereo partly drawn) [Example 8, N-[1-(4-Chlorophenyl)-2,2,2-trifluoroethyl]-1-(3,5-difluoropyridin-2-yl)-7-[(4S)-4-hydroxy-2-oxopyrrolidin-1-yl]-4-oxo-1,4-dihydro-1,8-naphthyridine-3-carboxamide] | 0.083 | 100 | 
15 | O=C(NC(c1c(F)cccc1F)C(F)(F)F)c1cn(-c2ncc(F)cc2F)c2nc(N3C[C@@H](O)CC3=O)ccc2c1=O (stereo partly drawn) [Example 9, N-[1-(2,6-Difluorophenyl)-2,2,2-trifluoroethyl]-1-(3,5-difluoropyridin-2-yl)-7-[(4S)-4-hydroxy-2-oxopyrrolidin-1-yl]-4-oxo-1,4-dihydro-1,8-naphthyridine-3-carboxamide] | 0.02 | 94.5 | 
16 | CC(NC(=O)c1cn(-c2ncc(F)cc2F)c2nc(N3CC4(COC4)C3)ccc2c1=O)C(F)(F)C(F)(F)F (single isomer, unassigned) [Example 181, 1-(3,5-Difluoropyridin-2-yl)-7-(2-oxa-6-azaspiro[3.3]hept-6-yl)-4-oxo-N-[3,3,4,4,4-pentafluorobutan-2-yl]-1,4-dihydro-1,8-naphthyridine-3-carboxamide] | 0.22 | 100 | 
17 | CC(NC(=O)c1cn(-c2ncc(F)cc2F)c2nc(N3CCC(O)(CO)CC3)ccc2c1=O)C(F)(F)C(F)(F)F (single isomer, unassigned) [Example 177, 1-(3,5-Difluoropyridin-2-yl)-7-[4-hydroxy-4-(hydroxymethyl)piperidin-1-yl]-4-oxo-N-(3,3,4,4,4-pentafluorobutan-2-yl)-1,4-dihydro-1,8-naphthyridine-3-carboxamide] | 0.038 | 100 | 
18 | CCC(NC(=O)c1cn(-c2ncc(F)cc2F)c2nc(N3C[C@@H](O)[C@H](O)C3)ccc2c1=O)C(F)(F)C(F)(F)F (mixture of isomers) [Example 95, 1-(3,5-Difluoropyridin-2-yl)-7-[(3R,4R)-3,4-dihydroxypyrrolidin-1-yl]-4-oxo-N-[1,1,1,2,2-pentafluoropentan-3-yl]-1,4-dihydro-1,8-naphthyridine-3-carboxamide] | 0.026 | 100 | 
19 | O=C(NC(CC(F)(F)F)C(F)(F)F)c1cn(-c2ncc(F)cc2F)c2nc(N3C[C@@H](O)[C@H](O)C3)ccc2c1=O (stereo partly drawn) [Example 160, 1-(3,5-Difluoropyridin-2-yl)-7-[(3R,4R)-3,4-dihydroxypyrrolidin-1-yl]-N-[1,1,1,4,4,4-hexafluorobutan-2-yl]-4-oxo-1,4-dihydro-1,8-naphthyridine-3-carboxamide] | 0.155 | 90.5 | 
20 | CC(NC(=O)c1cn(-c2ncc(F)cc2F)c2nc(N3CCNC3=O)ccc2c1=O)C(F)(F)C(F)(F)F (single isomer, unassigned) [Example 162, 1-(3,5-Difluoropyridin-2-yl)-4-oxo-7-(2-oxoimidazolidin-1-yl)-N-[3,3,4,4,4-pentafluorobutan-2-yl]-1,4-dihydro-1,8-naphthyridine-3-carboxamide] | 0.024 | 96 | 
21 | CC(NC(=O)c1cn(-c2ncc(F)cc2F)c2nc(N3C[C@@H](O)[C@H](O)C3)ccc2c1=O)C(F)(F)C(F)(F)F (single isomer, unassigned) [Example 89] | 0.275 | 98 | 
22 | CC1C(=O)N(c2ccc3c(=O)c(C(=O)N[C@@H](C)C(F)(F)F)cn(-c4ncc(F)cc4F)c3n2)CC1O (mixture of isomers) [Example 112, 1-(3,5-Difluoropyridin-2-yl)-7-[4-hydroxy-3-methyl-2-oxopyrrolidin-1-yl]-4-oxo-N-[(2S)-1,1,1-trifluoropropan-2-yl]-1,4-dihydro-1,8-naphthyridine-3-carboxamide] | 0.525 | 98 | 

— US10519154B2, “7-substituted 1-pyridyl-naphthyridine-3-carboxylic acid amides and use thereof” (Bayer Pharma Aktiengesellschaft, priority 2016, dated 2019)
